The source of these data is US5053408A, “Hexitol derivatives having vasodilative activity” (Kyowa Hakko Kogyo Co., Ltd., priority 1989, dated 1991).

Counter-ions that a name gives are not always drawn. Like-named read-outs stand apart in the source and are kept apart here. A value given as a limit tells only on which side of the number the result lay.

Data set [1] concerns male dd-mice. As to the kind of experiment: Acute toxicity. The settings on record: mouse, in vivo, 10080 min; for MLD i.p.: ip; for MLD p.o.: po. The method, then:
The compounds were orally administered and intraperitoneally administered to male dd-mice weighing 20 to 25 g. […] was determined by observing the mortality for seven days after the administration.

Data set [2] relates to coronary vasospasm model (lysine-vasopressin). Briefly: Effects on coronary vasospasm model (lysine-vasopressin test), inhibition of ST-segment elevation. The class given is in vivo, male Wistar rats. The settings on record: Rattus norvegicus.
[3] abbreviates: ip, 20 min before anesthetization, lysine-vasopressin 0.3 I.U./kg iv, MED = minimum dose with depression rate of 20% or higher, read-out: Coronary vasoconstriction model MED i.p.
[4] abbreviates: po, 30 min before anesthetization, lysine-vasopressin 0.3 I.U./kg iv, MED = minimum dose with depression rate of 20% or higher, read-out: Coronary vasoconstriction model MED p.o.

In data set [1], `O=[N+]([O-])O[C@H]1CO[C@H]2[C@@H]1OC[C@@H]2N1CCN(CCCSc2ccccc2)CC1` [Compound 1, 5-Deoxy-5-[4-(3-phenylthiopropyl)piperazin-1-yl]-1.4;3.6-dianhydro-L-iditol2-nitrate hydrochloride] came in with an MLD i.p. of over 100 mg/kg and an MLD p.o. of over 150 mg/kg. Also, the minimal effective dose in data set [2] (setting [3]) was under 25 mg/kg. The minimal effective dose in data set [2] (setting [4]) is under 30 mg/kg.

For `O=[N+]([O-])O[C@H]1CO[C@H]2[C@@H]1OC[C@@H]2N1CCN(CCCSc2ccncc2)CC1` [Compound 12, 5-Deoxy-5-[4-[3-(pyridin-4-ylthio)propyl]piperazin-1-yl]-1.4;3.6-dianhydro-L-iditol 2-nitrate hydrochloride], in data set [1], the MLD i.p. was over 100 mg/kg and the MLD p.o. is recorded as over 300 mg/kg. Further, the minimal effective dose in data set [2] (setting [4]) is under 30 mg/kg.

In data set [1], `O=C(O)Cc1ccc(SCCCN2CCN([C@H]3CO[C@H]4[C@@H]3OC[C@@H]4O[N+](=O)[O-])CC2)cc1` [Compound 16, 5-[4-[3-(4-Carboxymethylphenylthio)propyl]piperazin-1-yl]-5-deoxy-1.4;3.6-dianhydro-L-iditol 2-nitrate] returned an MLD i.p. of over 100 mg/kg and an MLD p.o. of over 300 mg/kg. Further, the minimal effective dose in data set [2] (setting [4]) is under 30 mg/kg.

With `O=[N+]([O-])O[C@H]1CO[C@H]2[C@@H]1OC[C@@H]2N1CCN(CCCn2ccnc2)CC1` [Compound 21, 5-Deoxy-5-[4-[3-(imidazol-1-yl)propyl]piperazin-1-yl]-1.4;3.6-dianhydro-L-iditol 2-nitrate hydrochloride], in data set [1], the MLD i.p. was over 100 mg/kg and the MLD p.o. is over 300 mg/kg. In addition, the minimal effective dose in data set [2] (setting [4]) is under 30 mg/kg.

Regarding `O=[N+]([O-])O[C@H]1CO[C@H]2[C@@H]1OC[C@@H]2N1CCN(CCCn2cnc3ccccc32)CC1` [Compound 22, 5-[4-[3-(Benzimidazol-1-yl)propyl]piperazin-1-yl]-5-deoxy-1.4;3.6-dianhydro-L-iditol 2-nitrate hydrochloride], in data set [1], the MLD i.p. was over 100 mg/kg and the MLD p.o. is recorded as over 300 mg/kg. In addition, in data set [2] (setting [3]), the minimal effective dose was under 25 mg/kg. For the same molecule, the minimal effective dose in data set [2] (setting [4]) is under 30 mg/kg.

In data set [1], `Cc1cc2ncn(CCCN3CCN([C@H]4CO[C@H]5[C@@H]4OC[C@@H]5O[N+](=O)[O-])CC3)c2cc1C` [Compound 23, 5-Deoxy-5-[4-[3-(5,6-dimethylbenzimidazol-1-yl)propyl]-piperazin-1-yl]-1.4;3.6-dianhydro-L-iditol 2-nitrate hydrochloride] showed an MLD i.p. of over 100 mg/kg and an MLD p.o. of over 300 mg/kg. Also, the minimal effective dose in data set [2] (setting [4]) is under 30 mg/kg.

In data set [1], `O=[N+]([O-])O[C@H]1CO[C@H]2[C@@H]1OC[C@@H]2N1CCN(CCCn2ccc3ccccc32)CC1` [Compound 27, 5-Deoxy-5-[4-[3-(indol-1-yl)propyl]piperazin-1-yl]-1.4;3.6-dianhydro-L-iditol 2-nitrate hydrochloride] yielded an MLD i.p. of over 100 mg/kg and an MLD p.o. of over 300 mg/kg. In addition, in data set [2] (setting [4]), the minimal effective dose is under 30 mg/kg.

In data set [1], `O=[N+]([O-])O[C@H]1CO[C@H]2[C@@H]1OC[C@@H]2N1CCN(CCCn2cc3ccccc3n2)CC1` [Compound 31, 5-Deoxy-5-[4-[3-(indazol-2-yl)propyl]piperazin-1-yl]-1.4; 3.6-dianhydro-L-iditol 2-nitrate hydrochloride] had an MLD i.p. of over 100 mg/kg and an MLD p.o. of over 300 mg/kg. Moreover, the minimal effective dose in data set [2] (setting [3]) was under 25 mg/kg.

In the case of `O=[N+]([O-])O[C@H]1CO[C@H]2[C@@H]1OC[C@@H]2N1CCN(CCc2nc3ccccc3[nH]2)CC1` [Compound 57, 5-[4-[2-(Benzimidazol-2-yl)ethyl]piperazin-1-yl]-5-deoxy-1.4;3.6-dianhydro-L-iditol 2-nitrate hydrochloride], in data set [1], the MLD i.p. is reported as over 100 mg/kg and the MLD p.o. is recorded as over 300 mg/kg. Besides, in data set [2] (setting [3]), the minimal effective dose was under 25 mg/kg.

With `O=[N+]([O-])O[C@H]1CO[C@H]2[C@@H]1OC[C@@H]2N1CCN(c2nc3ccccc3s2)CC1` [Compound 58, 5-[4-(Benzothiazol-2-yl)piperazin-1-yl]-5-deoxy-1.4;3.6-dianhydro-L-iditol 2-nitrate hydrochloride], in data set [1], the MLD i.p. is over 100 mg/kg and the MLD p.o. was over 300 mg/kg. In addition, in data set [2] (setting [3]), the minimal effective dose was under 25 mg/kg.

With `O=[N+]([O-])O[C@H]1CO[C@H]2[C@@H]1OC[C@@H]2N1CCN(c2nnnn2-c2ccccc2)CC1` [Compound 60, 5-Deoxy-5-[4-(1-phenyl-1H-tetrazol-5-yl)piperazin-1-yl-]-1.4;3.6-dianhydro-L-iditol 2-nitrate hydrochloride], in data set [1], the MLD i.p. is given as over 100 mg/kg and the MLD p.o. is over 300 mg/kg. In addition, the minimal effective dose in data set [2] (setting [3]) is under 25 mg/kg.

In data set [1], `O=[N+]([O-])O[C@H]1CO[C@H]2[C@@H]1OC[C@@H]2N1CCN(c2nc3ccccc3[nH]2)CC1` [Compound 76, 5-[4-(Benzimidazol-2-yl)piperazin-1-yl]-5-deoxy-1.4;3.6-dianhydro-L-iditol 2-nitrate hydrochloride] yielded an MLD i.p. of over 100 mg/kg and an MLD p.o. of over 300 mg/kg. Moreover, the minimal effective dose in data set [2] (setting [4]) is under 30 mg/kg.

Regarding `COc1cc2nc(N3CCN([C@H]4CO[C@H]5[C@@H]4OC[C@@H]5O[N+](=O)[O-])CC3)nc(N)c2cc1OC` [Compound 78, 5-[4-(4-Amino-6,7-dimethoxyquinazolin-2-yl)piperazin-1-yl]-5-deoxy-1.4;3.6-dianhydro-L-iditol 2-nitrate hydrochloride], in data set [1], the MLD i.p. was over 100 mg/kg and the MLD p.o. is over 300 mg/kg. For the same molecule, in data set [2] (setting [4]), the minimal effective dose is under 30 mg/kg.

In the case of `O=C(c1cccnc1)N1CCN([C@H]2CO[C@H]3[C@@H]2OC[C@@H]3O[N+](=O)[O-])CC1` [Compound 80], the MLD i.p. in data set [1] is on record as over 100 mg/kg. The molecule also came in with an MLD p.o. in data set [1] of over 300 mg/kg. Further, the minimal effective dose is under 25 mg/kg in data set [2] (setting [3]) and under 30 mg/kg in data set [2] (setting [4]).

As to `O=C(c1ccccn1)N1CCN([C@H]2CO[C@H]3[C@@H]2OC[C@@H]3O[N+](=O)[O-])CC1` [Compound 81, 5-Deoxy-5-[4-(pyridin-2-yl)carbonylpiperazin-1-yl]-1.4;3.6-dianhydro-L-iditol 2-nitrate hydrochloride], in data set [1], the MLD i.p. is listed as over 100 mg/kg and the MLD p.o. is recorded as over 300 mg/kg. Also, the minimal effective dose in data set [2] (setting [4]) was under 30 mg/kg.

In data set [1], `O=C(c1ccco1)N1CCN([C@H]2CO[C@H]3[C@@H]2OC[C@@H]3O[N+](=O)[O-])CC1` [Compound 83, 5-Deoxy-5-[4-(furan-2-yl)carbonylpiperazin-1-yl]-1.4;3.6-dianhydro-L-iditol2-nitrate hydrochloride] registered an MLD i.p. of over 100 mg/kg and an MLD p.o. of over 300 mg/kg. The minimal effective dose in data set [2] (setting [4]) was under 30 mg/kg.

As to `O=C(c1ccccc1)N1CCN([C@H]2CO[C@H]3[C@@H]2OC[C@@H]3O[N+](=O)[O-])CC1` [Compound 84, 5-(4-Benzoylpiperazin-1-yl)-5-deoxy-1.4;3.6-dianhydro-L-iditol 2-nitrate hydrochloride], in data set [1], the MLD i.p. was over 100 mg/kg and the MLD p.o. is over 300 mg/kg. Also, the minimal effective dose in data set [2] (setting [3]) is under 25 mg/kg.

In data set [1], `COc1ccc(C(=O)N2CCN([C@H]3CO[C@H]4[C@@H]3OC[C@@H]4O[N+](=O)[O-])CC2)c(OC)c1OC` [Compound 87, 5-Deoxy-5-[4-(2,3,4-trimethoxybenzoyl)piperazin-1-yl]-1.4;3.6-dianhydro-L-iditol 2-nitratehydrochloride] came in with an MLD i.p. of over 100 mg/kg and an MLD p.o. of over 300 mg/kg. Further, the minimal effective dose in data set [2] (setting [4]) is under 30 mg/kg.

With `O=C(c1ccc(Cl)nc1)N1CCN([C@H]2CO[C@H]3[C@@H]2OC[C@@H]3O[N+](=O)[O-])CC1` [Compound 89, 5-[4-(6-Chloropyridin-3-yl)carbonylpiperazin-1-yl]-5-deoxy-1.4;3.6-dianhydro-L-iditol 2-nitrate hydrochloride], in data set [1], the MLD i.p. is recorded as over 100 mg/kg and the MLD p.o. is listed as over 300 mg/kg. Besides, the minimal effective dose in data set [2] (setting [4]) is under 30 mg/kg.

Take `Cc1ccc(C(=O)N2CCN([C@H]3CO[C@H]4[C@@H]3OC[C@@H]4O[N+](=O)[O-])CC2)cn1` [Compound 93, 5-Deoxy-5-[4-(6-methylpyridin-3-yl)carbonylpiperazin-1-yl]-1.4;3.6-dianhydro-L-iditol 2-nitrate hydrochloride]: in data set [1], the MLD i.p. was over 100 mg/kg and the MLD p.o. was over 300 mg/kg. Moreover, the minimal effective dose in data set [2] (setting [4]) is under 30 mg/kg.

In data set [1], `O=[N+]([O-])O[C@@H]1CO[C@H]2[C@@H]1OC[C@@H]2N1CCN(CCCSc2ccccc2)CC1` [Compound 96, 2-Deoxy-2-[4-(3-phenylthiopropyl)piperazin-1-yl]-1.4;3.6-dianhydro-D-glucitol 5-nitrate hydrochloride] registered an MLD i.p. of over 100 mg/kg and an MLD p.o. of over 300 mg/kg. In addition, the minimal effective dose in data set [2] (setting [3]) was under 25 mg/kg.

As for `O=C(c1cccnc1)N1CCN([C@H]2CO[C@H]3[C@@H]2OC[C@@H]3O)CC1` [Compound 117, 5-Deoxy-5-[4-(pyridin-3-yl)carbonylpiperazin-1-yl]-1.4;3.6-dianhydro-L-iditol], the minimal effective dose is under 25 mg/kg in data set [2] (ip, read-out: Coronary vasoconstriction model MED i.p.) and under 30 mg/kg in data set [2] (po, read-out: Coronary vasoconstriction model MED p.o.).

For `O=C(NCCO[N+](=O)[O-])c1cccnc1` [Nicorandil, reference compound], in data set [2] (setting [3]), the minimal effective dose was under 30 mg/kg.
